Test results published in patent US20230303547A1, “N-CYANOPYRROLIDINES WITH ACTIVITY AS USP30 INHIBITORS” (MISSION THERAPEUTICS LIMITED, priority 2020, published 2023).
Where two headings read alike, the source gives them in different places.

Legend:
UCHL1 = UCHL1 (Homo sapiens (Human), UniProt P09936); test: UCHL1 DUB IC50; format: biochemical; settings: for DUB selectivity preference for USP30 v UCHL1: fold
USP30 = USP30 (Homo sapiens (Human), UniProt Q70CQ3); test: USP30 biochemical IC50 assay (fluorescence polarisation)
Description: It is generally desirable to maximise the potency of a drug molecule against the target enzyme in relevant assays in order to lower the effective/efficacious dosage that is to be administered to patients. Compounds of the invention may be tested for USP30 affinity using the in vitro biochemical fluorescence polarization (FP) assay described herein.
Dilution plates were prepared at 21 times the final concentration (2100 µM for a final concentration of 100 µM) in 50% DMSO in a 96-well polypropylene V-bottom plate (Greiner #651201). A typical 8-point dilution series would be 100, 30, 10, 3, 1, 0.3, 0.1, 0.03 µM final. Reactions were performed in duplicate in black 384 well plates (small volume, Greiner 784076) in a final reaction volume of 21 µl. Either 1 µl of 50% DMSO or diluted compound was added to the plate. USP30 (Boston Biochem #E582) was diluted in reaction buffer (40 mM Tris, pH 7.5, 0.005% Tween 20, 0.5 mg/ml BSA, 5 mM beta-mercaptoethanol) to achieve a final assay concentration of 4 nM, and 10 µl of diluted USP30 was added to the compound. Enzyme and compound were incubated for 30 min at room temp. Reactions were initiated by the addition of 50 nM of TAMRA labelled peptide linked to ubiquitin via an iso-peptide bond as fluorescence polarisation substrate. Reactions were read immediately after addition of substrate and following a 2-hour incubation at room temperature. Readings were performed on a Pherastar Plus (BMG Labtech). λ Excitation 540 nm; λ Emission 590 nm.

Cathepsin L = Cathepsin L (Homo sapiens (Human), UniProt P07711); test: Cathepsin L IC50; format: biochemical
Cathepsin V = Cathepsin V (Homo sapiens (Human), UniProt O60911); test: Cathepsin V IC50; format: biochemical
Cathepsin K = Cathepsin K (Homo sapiens (Human), UniProt P43235); test: Cathepsin K IC50; format: biochemical
Cathepsin B = Cathepsin B (Homo sapiens (Human), UniProt P07858); test: Cathepsin B IC50; format: biochemical
Cathepsin S = Cathepsin S (Homo sapiens (Human), UniProt P25774); test: Cathepsin S IC50; format: biochemical
[1] = tested on: cathepsins (B, K, L, S and V); test: Cathepsin panel summary; format: biochemical; settings: for Selectivity preference for USP30 v cathepsins: fold; for IC50: summary over the five cathepsins
[2] = tested on: USP2, USP6, USP10, USP15, USP16, USP21, USP25, USP28, USP46/UAF1; test: DUB selectivity panel IC50; format: biochemical; settings: for DUB selectivity preference for USP30 v 9 DUBs: fold, minimum over nine DUBs; for IC50: range over the nine DUBs
[3] = reference examples, USP30 biochemical IC50 assay, read-out: USP30 IC50
[4] = USP30 biochemical IC50 assay, read-out: IC50

Sequence of Cathepsin L (P07711 114-333, species assumed): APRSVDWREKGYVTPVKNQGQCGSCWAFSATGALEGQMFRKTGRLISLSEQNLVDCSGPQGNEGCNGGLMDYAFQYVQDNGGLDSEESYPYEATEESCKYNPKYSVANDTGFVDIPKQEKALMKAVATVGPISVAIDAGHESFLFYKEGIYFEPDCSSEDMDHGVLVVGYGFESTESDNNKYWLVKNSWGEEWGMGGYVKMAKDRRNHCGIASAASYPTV
Sequence of USP30 (Q70CQ3 57-517): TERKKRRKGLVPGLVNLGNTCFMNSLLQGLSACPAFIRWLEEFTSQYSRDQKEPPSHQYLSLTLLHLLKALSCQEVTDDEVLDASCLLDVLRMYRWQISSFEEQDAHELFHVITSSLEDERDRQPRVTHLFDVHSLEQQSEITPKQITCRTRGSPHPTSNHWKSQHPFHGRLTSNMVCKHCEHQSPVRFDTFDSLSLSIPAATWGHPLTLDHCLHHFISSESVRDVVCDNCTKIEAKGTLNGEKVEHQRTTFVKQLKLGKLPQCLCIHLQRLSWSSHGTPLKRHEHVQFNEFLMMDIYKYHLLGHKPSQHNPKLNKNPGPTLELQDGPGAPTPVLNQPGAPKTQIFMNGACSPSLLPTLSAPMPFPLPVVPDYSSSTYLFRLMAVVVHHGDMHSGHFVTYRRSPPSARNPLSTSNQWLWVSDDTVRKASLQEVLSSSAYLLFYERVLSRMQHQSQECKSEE
Sequence of Cathepsin S (P25774 115-331, species assumed): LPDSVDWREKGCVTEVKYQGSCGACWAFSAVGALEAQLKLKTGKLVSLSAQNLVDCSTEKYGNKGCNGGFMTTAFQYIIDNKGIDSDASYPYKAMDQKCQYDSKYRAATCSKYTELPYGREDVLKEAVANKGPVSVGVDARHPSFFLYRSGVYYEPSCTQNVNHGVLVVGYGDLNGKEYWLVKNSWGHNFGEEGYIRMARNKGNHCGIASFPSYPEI
Sequence of UCHL1 (P09936 whole entry, species assumed): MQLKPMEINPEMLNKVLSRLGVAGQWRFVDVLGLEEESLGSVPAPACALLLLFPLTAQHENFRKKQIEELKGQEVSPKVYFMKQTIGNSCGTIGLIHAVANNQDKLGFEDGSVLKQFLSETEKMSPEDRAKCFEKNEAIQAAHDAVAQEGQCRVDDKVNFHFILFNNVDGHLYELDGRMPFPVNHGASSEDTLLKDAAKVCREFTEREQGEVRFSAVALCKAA
Sequence of Cathepsin K (P43235 115-329, species assumed): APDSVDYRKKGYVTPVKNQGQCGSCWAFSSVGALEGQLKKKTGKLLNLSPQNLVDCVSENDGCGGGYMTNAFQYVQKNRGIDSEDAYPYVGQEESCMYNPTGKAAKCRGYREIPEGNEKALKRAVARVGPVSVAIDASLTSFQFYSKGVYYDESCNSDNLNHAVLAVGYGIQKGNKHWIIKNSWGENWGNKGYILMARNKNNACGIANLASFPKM
Sequence of Cathepsin V (O60911 114-334, species assumed): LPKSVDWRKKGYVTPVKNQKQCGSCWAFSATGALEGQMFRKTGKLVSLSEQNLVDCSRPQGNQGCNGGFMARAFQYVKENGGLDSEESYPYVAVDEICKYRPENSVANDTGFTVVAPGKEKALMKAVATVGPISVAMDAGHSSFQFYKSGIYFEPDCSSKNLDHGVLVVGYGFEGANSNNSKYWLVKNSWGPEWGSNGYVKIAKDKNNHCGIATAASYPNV

| SMILES | IC50 (UCHL1) [µM] | DUB selectivity preference for USP30 v UCHL1 (UCHL1) | IC50 (Cathepsin L) [µM] | IC50 (Cathepsin V) [µM] | IC50 (Cathepsin K) [µM] | IC50 (Cathepsin B) [µM] | IC50 (Cathepsin S) [µM] | IC50 (USP30; [4]) [µM] | IC50 [1] [µM] | Selectivity preference for USP30 v cathepsins [1] | DUB selectivity preference for USP30 v 9 DUBs [2] | also measured |
| --- | --- | --- | --- | --- | --- | --- | --- | --- | --- | --- | --- | --- |
| N#Cc1ccc(-c2cnc(NC(=O)[C@H]3CCN(C#N)C3)s2)cc1OC(F)(F)F [B, reference compound] | 0.52 | 3.0 | – | – | – | – | – | – | – | – | – | – |
| COc1cc(-c2cnc(NC(=O)[C@H]3CCN(C#N)C3)s2)ccc1C#N [C, reference compound] | 0.21 | 1.3 | – | – | – | – | – | – | – | – | – | IC50 (USP30; read-out: DUB IC50 USP30): 0.16 µM; IC50 (USP30; [3]): 0.16 µM |
| N#CN1CC[C@H](C(=O)Nc2ncc(-c3ccccc3)s2)C1 [D, reference compound] | – | 0.8 | – | – | – | – | – | – | – | – | – | – |
| COc1ccc(C#N)cc1-c1cnc(C(=O)N[C@@H]2C[C@@H](C)N(C#N)C2)o1 [Example 4, 5-(5-cyano-2-methoxyphenyl)-N-((3R,5R)-1-cyano-5-methylpyrrolidin-3-yl)oxazole-2-carboxamide] | > 300 | – | 294 | > 300 | 165 | > 300 | > 300 | – | – | – | – | – |
| COC[C@@H]1C[C@@H](NC(=O)c2ncc(-c3cc(C#N)ccc3OC)o2)CN1C#N [Example 5, 5-(5-cyano-2-methoxyphenyl)-N-((3R,5S)-1-cyano-5-(methoxymethyl)pyrrolidin-3-yl)oxazole-2-carboxamide] | – | – | – | – | – | – | – | 0.003 | – | – | – | – |
| COC[C@@H]1C[C@@H](NC(=O)c2nc(-c3cc(C#N)ccc3OC)co2)CN1C#N [Example 6, 4-(5-cyano-2-methoxyphenyl)-N-((3R,5S)-1-cyano-5-(methoxymethyl)pyrrolidin-3-yl)oxazole-2-carboxamide] | > 300 | – | 39.8 | 91.6 | 40.4 | 52.1 | 64.8 | 0.002 | ≥ 39.8 | ≥ 19900 | ≥ 700 | IC50 (USP30; read-out: DUB IC50 USP30): 0.002 µM; IC50 [2]: 1.4 to 258 µM |
| COC[C@@H]1C[C@@H](NC(=O)c2ncc(-c3cc(C#N)ccc3OC(F)(F)F)o2)CN1C#N [Example 7, 5-(5-cyano-2-(trifluoromethoxy)phenyl)-N-((3R,5S)-1-cyano-5-(methoxymethyl)pyrrolidin-3-yl)oxazole-2-carboxamide] | > 300 | – | 13.8 | 12.1 | 14.9 | 60.9 | > 30 | 0.003 | ≥ 12.1 | ≥ 4033 | ≥ 1333 | IC50 (USP30; read-out: DUB IC50 USP30): 0.003 µM |
| C[C@@H]1C[C@@H](NC(=O)c2ncc(-c3cc(C#N)ccc3OC(F)(F)F)o2)CN1C#N [Example 8, 5-(5-cyano-2-(trifluoromethoxy)phenyl)-N-((3R,5R)-1-cyano-5-methylpyrrolidin-3-yl)oxazole-2-carboxamide] | – | – | – | – | – | – | – | 0.004 | – | – | – | – |
| COc1cc(F)c(C#N)cc1-c1cnc(C(=O)N[C@@H]2C[C@@H](C)N(C#N)C2)o1 [Example 9, 5-(5-cyano-4-fluoro-2-methoxyphenyl)-N-((3R,5R)-1-cyano-5-methylpyrrolidin-3-yl)oxazole-2-carboxamide] | – | – | – | – | – | – | – | 0.002 | – | – | – | – |

More lines, main results first:

| IC50 (UCHL1) [µM] | DUB selectivity preference for USP30 v UCHL1 (UCHL1) | IC50 (Cathepsin L) [µM] | IC50 (Cathepsin V) [µM] | IC50 (Cathepsin K) [µM] | IC50 (Cathepsin B) [µM] | IC50 (Cathepsin S) [µM] | IC50 (USP30; [4]) [µM] | IC50 [1] [µM] | SMILES | Selectivity preference for USP30 v cathepsins [1] | DUB selectivity preference for USP30 v 9 DUBs [2] | also measured |
| --- | --- | --- | --- | --- | --- | --- | --- | --- | --- | --- | --- | --- |
| – | – | – | – | – | – | – | 0.004 | – | COC[C@@H]1C[C@@H](NC(=O)c2nc(-c3cc(C#N)ccc3OC3CC3)co2)CN1C#N [Example 10, 4-(5-cyano-2-cyclopropoxyphenyl)-N-((3R,5S)-1-cyano-5-(methoxymethyl)pyrrolidin-3-yl)oxazole-2-carboxamide] | – | – | – |
| > 300 | – | 15.4 | > 100 | 100 | 83 | 130 | 0.01 | ≥ 15.4 | COC[C@H]1C[C@@H](NC(=O)c2ncc(-c3cc(C#N)ccc3OC3CC3)o2)CN1C#N [Example 11, 5-(5-cyano-2-cyclopropoxyphenyl)-N-((3R,5R)-1-cyano-5-(methoxymethyl)pyrrolidin-3-yl)oxazole-2-carboxamide] | ≥ 1540 | ≥ 7820 | – |
| > 300 | greater than 4412 | > 300 | 190 | > 300 | > 300 | > 300 | 0.068 | ≥ 189 | COC[C@H]1C[C@@H](NC(=O)c2nc(-c3cc(C#N)ccc3OC3CC3)co2)CN1C#N [Example 12, 4-(5-cyano-2-cyclopropoxyphenyl)-N-((3R,5R)-1-cyano-5-(methoxymethyl)pyrrolidin-3-yl)oxazole-2-carboxamide] | ≥ 2788 | ≥ 110 | DUB selectivity preference for USP30 v UCHL1 (UCHL1; listed as Ex. 12): > 4412 |
| – | – | 2.9 | – | – | – | – | – | 0.79 to 8.8 | COc1cccc(-c2cc(C(=O)N[C@@H]3CCN(C#N)C3)on2)c1 [Reference Example A, reference compound] | 11.6 - 129 | ≥ 2.2 | fold more potent against USP30 than against cathepsin K (Cathepsin K): 11.6 fold; IC50 (USP30; read-out: DUB IC50 USP30): 0.068 µM; IC50 (USP30; [3]): 0.068 µM; IC50 [2]: 0.15 to 22.4 µM |
| – | 1.5 | – | – | – | – | – | – | – | CC1CC(C(=O)Nc2ncc(-c3ccccc3)s2)CN1C#N (centres unmarked) [Reference Example E, reference compound] | – | – | – |
